From US20250057808A1, “COMPOSITION COMPRISING BETA LACTAM FOR TREATING ALCOHOL DEPENDENCE AND ALCOHOL ASSOCIATED DISEASES OR CONDITIONS” (Temple University of the Commonwealth System of Higher …, priority 2023, published 2025)
Entries after “also recorded” stand apart in the source; their conditions may differ.

Key:
[1] = earlier and literature studies in rats; cited from earlier work
GLT-1 [2] = conditions: earlier studies, chronic ethanol; cited from earlier work
xCT [3] = conditions: earlier studies, chronic ethanol; cited from earlier work
[4] = Ethanol drinking paradigm, three-bottle choice (MC-100093 50 mg/kg vs ceftriaxone 200 mg/kg); format: in vivo, P rats
Experimental: P rats were received from Indiana University School of Medicine (Indianapolis, IN, USA), and were housed in a 21° C. on a 12/12 h light/dark cycle-maintained room where they had free access to water and food. All experimental procedures were approved by the Institutional Animal Care and Use Committee (IACUC) of The University of Toledo, in accordance with the guidelines governing the use of animals in research of the National Institutes of Health as described in the Guidefor the Care and Use of Laboratory Animals.
We used an ethanol drinking paradigm as described previously by Alhaddad, et al. (2014). Briefly, animals started the experimental drinking procedure at age of 90 days. The animals had five weeks of exposure to continuous three-bottle choice drinking, 0%, 15% and 30%, v/v ethanol in water, available concurrently. Daily measurement of ethanol intake was performed (g of ethanol intake/kg of body weight/day). We measured the baseline ethanol drinking by average the intake during the last three weeks. Three groups of P rats (n=8-9/group) exposed to the five weeks ethanol exposure. At week 6, rats in each group received daily intraperitoneal injection of either MC-100093 at dose of 50 mg/kg (Ethanol-MC group), Ceftriaxone at dose of 200 mg/kg (Ethanol-CEF group, which also serves as positive control), or equivolume of saline vehicle (Ethanol group) for five days. This paradigm results in pharmacologically relevant blood alcohol concentration (50-200 mg %). Following the criteria for the development of ethanol dependence, rats whose average ethanol intake <4 g/kg/day were excluded from the study. Beside the ethanol exposed groups, another group of P rats (n=8) exposed to only water and food throughout the exposure procedures (control group).
(§1) All statistical analyses were conducted with Graphpad Prism software, with p-values of 0.05 or less being statistically significant. We performed a two-way (mixed model) ANOVA followed by Bonferroni multiple comparison post-hoc test to analyze 24 h ethanol consumption, 24 h water consumption, and daily body weight. For the Western blot and oil red O staining analysis, we performed one-way ANOVA with Newman-Keuls as a post hoc multiple comparison test to measure differences between groups as a percentage (relative to control values).

GLT-1 [5] = test: Western blot GLT-1 expression in NAc-core, NAc-shell and liver (50 mg/kg study); format: in vivo, P rats; conditions: MC-100093 50 mg/kg or ceftriaxone 200 mg/kg i.p. 5 days
Experimental: (§2) We used micro-punch procedure to dissect the subregions of the NAc such as NAc-core and NAc-shell as well as the subregions of prefrontal cortex such as infralimbic (IL) and prelimbic (PL) from the brain on day 6 after the last injection day. P rats were removed from the cage and rapidly euthanized by CO2 inhalation followed by rapid decapitation with a guillotine. Brains were isolated and immediately frozen on dry ice and stored at −80° C. The stereotaxic coordinates provided by Paxinos and colleague's rat brain stereotactic atlas was used to isolate NAc-core and NAc-shell using a cryostat apparatus (−20° C.), which then kept at −80° C. for later western blot analyses.
(§3) Western Blot assay was performed to measure changes in the expression of GLT-1, xCT, mGluR1, mGluR5, PPAR-α, PPARγ, GAPDH and β-tubulin in the NAc-core and NAc-shell as described in previous publications. A lysis buffer containing protease and phosphatase inhibitors was used to generate a homogenate of liver, Nac-core, and Nac-shell samples. The amount of protein was quantified using a detergent compatible protein assay (Bio-Rad, Hercules, CA, USA) for each sample. Samples were mixed with laemmli dye and loaded with equal amounts on polyacrylamide gels (10%), which separated the proteins using electrophoresis. After that, polyvinylidene difluoride (PVDF) membranes were used to transfer the proteins electrophoretically from the gels. Membranes were incubated in 5% free-fat milk in Tris-buffered saline with Tween-20 (TBST) for 30-60 minutes at room temperature. Membranes were then incubated with appropriate primary antibodies overnight at 4° C.: rabbit anti-GLT-1 (1:5000, Abcam, ab41621), rabbit anti-xCT (1:2000, Abcam, ab175186), rabbit anti-mGluR1 (1:1000, Abcam, ab82211), rabbit anti-mGluR5 (1:1000, Abcam, ab76316), rabbit anti-PPAR-α (1:1000, Abcam, ab24509), and rabbit anti-PPARγ (1:1000, Abcam, ab209350). Mouse anti-β-tubulin (1:1000; BioLegend) was used as a loading control antibody for the brain samples and rabbit anti-GAPDH (1:5000; cell signaling) was used as a loading control antibody for the liver samples. Membranes were washed five times on the next day with TBST followed by incubation with appropriate secondary antibody (1:5000) for 90 minutes at room temperature. Chemiluminescent reagents (Super Signal West Pico, Pierce Inc.) were used to detect the proteins using a GeneSys imaging system to develop the digitized blot images. Water-control group data were represented as 100% and all other values were expressed relative to control group to detect changes in the expression of the protein of interest in the brain and liver samples.
as §1

xCT [6] = test: Western blot xCT expression in NAc-core, NAc-shell and liver (50 mg/kg study); format: in vivo, P rats; conditions: MC-100093 50 mg/kg or ceftriaxone 200 mg/kg i.p. 5 days
Experimental: as §2, §3, §1

mGluR1 = test: Western blot mGluR1 expression in NAc-core and NAc-shell; format: in vivo, P rats; conditions: MC-100093 50 mg/kg or ceftriaxone 200 mg/kg i.p. 5 days; among all groups
Experimental: as §2, §3
(§4) All statistical analyses were conducted with Graphpad Prism software, with p-values of 0.05 or less being statistically significant. […]

mGluR5 = test: Western blot mGluR5 expression in NAc-core and NAc-shell; format: in vivo, P rats; conditions: MC-100093 50 mg/kg or ceftriaxone 200 mg/kg i.p. 5 days
Experimental: as §2, §3, §4

PPAR-α = test: Western blot PPAR-α expression in NAc-core, NAc-shell and liver; format: in vivo, P rats; conditions: MC-100093 50 mg/kg or ceftriaxone 200 mg/kg i.p. 5 days; among all groups
Experimental: as §2, §3, §4

PPAR-γ = test: Western blot PPAR-γ expression in liver; format: in vivo, P rats; conditions: MC-100093 50 mg/kg or ceftriaxone 200 mg/kg i.p. 5 days; between all groups
Experimental: Western Blot assay was performed to measure changes in the expression of GLT-1, xCT, mGluR1, mGluR5, PPAR-α, PPARγ, GAPDH and β-tubulin in the NAc-core and NAc-shell as described in previous publications. A lysis buffer containing protease and phosphatase inhibitors was used to generate a homogenate of liver, Nac-core, and Nac-shell samples. The amount of protein was quantified using a detergent compatible protein assay (Bio-Rad, Hercules, CA, USA) for each sample. Samples were mixed with laemmli dye and loaded with equal amounts on polyacrylamide gels (10%), which separated the proteins using electrophoresis. After that, polyvinylidene difluoride (PVDF) membranes were used to transfer the proteins electrophoretically from the gels. Membranes were incubated in 5% free-fat milk in Tris-buffered saline with Tween-20 (TBST) for 30-60 minutes at room temperature. Membranes were then incubated with appropriate primary antibodies overnight at 4° C.: rabbit anti-GLT-1 (1:5000, Abcam, ab41621), rabbit anti-xCT (1:2000, Abcam, ab175186), rabbit anti-mGluR1 (1:1000, Abcam, ab82211), rabbit anti-mGluR5 (1:1000, Abcam, ab76316), rabbit anti-PPAR-α (1:1000, Abcam, ab24509), and rabbit anti-PPARγ (1:1000, Abcam, ab209350). […]

fat content in the liver = test: Liver Oil Red O staining (fat content); format: in vivo, P rats; conditions: MC-100093 50 mg/kg or ceftriaxone 200 mg/kg i.p. 5 days, control, ethanol, ethanol-CEF groups
Experimental: To measure the fat content in the liver sections, we used Oil Red O (Sigma, CAS Number 1320-06-5) staining on 10 μm thick formalin-fixed liver sections and placed in slides for further staining. The slides were stained with freshly prepared Oil Red O working solution 15 minutes then rinsed with 60% isopropanol. Slides were then rinsed with distilled water and mounted in aqueous mounting media and prepared for imaging. The degree of Oil Red O staining was determined at 20× magnification using a color video camera attached to an Olympus VS120 slide scanning microscope. Olympus OlyVIA software was used to analyze the images. The lipid droplets were quantified using Image J pro (NIH). Data are presented as the mean+SEM of the Oil Red O staining for each group.
as §1

[7] = ceftriaxone 200 mg/kg i.p. vs MC-100093 50 mg/kg i.p., days 2 through 5

Cc1ccc(C)c(OCCCC(C)(C)C(=O)O)c1 [Gemfibrozil]
Ethanol drinking behavior / consumption [1]: reduced ethanol drinking behavior in rats

CC1CC=NN1C(=O)c1cccnc1 (centres unmarked) [MS-153]
Ethanol drinking behavior / consumption [1]: attenuated ethanol drinking behaviors | GLT-1 expression in the NAc (GLT-1 [2]): upregulated GLT-1 and xCT expression in the NAc | xCT expression in the NAc (xCT [3]): upregulated GLT-1 and xCT expression in the NAc

CO/N=C(\C(=O)N[C@@H]1C(=O)N2C(C(=O)O)=C(CSc3nc(=O)c(=O)[nH]n3C)CS[C@H]12)c1csc(N)n1 [Ceftriaxone, reference compound]
Body weight (grams) ([4]; MC-100093 50 mg/kg i.p. or ceftriaxone 200 mg/kg i.p. 5 days): Neither MC-100093 (50 mg/kg, i.p.) nor Ceftriaxone (200 mg/kg, i.p.) treatment has significant effect; also recorded: no significant effects | Water intake (mL/day) ([4]; MC-100093 50 mg/kg i.p. or ceftriaxone 200 mg/kg i.p. 5 days, vs Ethanol-Saline group (MC-100093: at day 5 only)): significant increase in water consumption from day 1 through day 5; also recorded: significant increase in water consumption from day 2 through day 5 | Ethanol consumption (g/kg of average body weight/24 hr) ([4]; P rats after 5 wk ethanol, MC-100093 50 mg/kg i.p. or ceftriaxone 200 mg/kg i.p. daily 5 days, vs Ethanol-Saline group): significant decrease in ethanol consumption from day 1 through day 5; also recorded: significantly reduced ethanol consumption from day 2 through day 5; also recorded: attenuated ethanol drinking behavior | Ethanol consumption, Ethanol-Ceftriaxone compared to Ethanol-MC group [4, 7]: significantly lower; also recorded: attenuate drinking behavior to a greater extent than MC-100093 | Water consumption, Ethanol-Ceftriaxone compared to Ethanol-MC group [4, 7]: significantly higher | Protein expression of GLT-1 in the liver (GLT-1 [5]): normalized GLT-1 level; also recorded: normalize the PPAR-α and GLT-1 levels in the liver | Protein expression of GLT-1 in the NAc-core (GLT-1 [5]; among Control, Ethanol, Ethanol-MC, Ethanol-CEF): non-significant difference; also recorded: no significant difference | Protein expression of GLT-1 in the NAc-shell (GLT-1 [5]; vs Ethanol group): significantly increased | Protein expression of xCT in the NAc-core (xCT [6]; among all groups): non-significant difference; also recorded: no significant difference | Protein expression of xCT in the liver (xCT [6]; between all groups): no significant differences | Protein expression of xCT in the NAc-shell (xCT [6]; vs Ethanol group): significantly higher level of xCT; also recorded: significantly increased xCT expression | Protein expression of mGluR1 in the NAc-core (mGluR1): non-significant difference; also recorded: no significant difference | Protein expression of mGluR1 in the NAc-shell (mGluR1): non-significant differences; also recorded: no significant difference | Protein expression of mGluR5 in the NAc-core (mGluR5; among all groups): non-significant difference; also recorded: no significant difference | Protein expression of mGluR5 in the NAc-shell (mGluR5; vs control or ethanol groups): no significant change in the expression of mGluR5; also recorded: significantly downregulated in ethanol group compared to control, Ethanol-MC (50 mg/kg), and Ethanol-CEF (200 mg/kg) groups; also recorded: normalizing levels of mGluR5 | Protein expression of PPAR-α in the NAc-core (PPAR-α): non-significant differences; also recorded: did not detect significant changes | Protein expression of PPAR-α in the NAc-shell (PPAR-α): non-significant differences; also recorded: did not detect significant changes | Protein expression of PPAR-γ in the liver (PPAR-γ): not changed significantly | Liver fat content (Oil Red O stained fat droplets) (fat content in the liver): no significant difference in fat content between control, ethanol-MC, and ethanol-CEF groups; also recorded: significantly higher fat droplet content in ethanol group (p<0.05) compared to control, ethanol-MC or ethanol-CEF groups; also recorded: alleviated the liver steatosis | Ethanol drinking behavior / consumption [1]: decreased ethanol consumption in rats; also recorded: attenuated ethanol drinking behaviors | GLT-1 expression in the NAc (GLT-1 [2]): attenuation of downregulation of GLT-1 as well as xCT expression; also recorded: upregulated GLT-1 and xCT expression in the NAc | xCT expression in the NAc (xCT [3]): attenuation of downregulation of GLT-1 as well as xCT expression; also recorded: upregulated GLT-1 and xCT expression in the NAc
